Reference: patent publication US11440932B2, “Surfactant compounds-clips for extraction and stabilization in solution of membrane proteins” (CENTRE NATIONAL DE LA RECHERCHE SCIENTIFIQUE, priority 2017, dated 2022)
Non-standard residues stand in square brackets, D forms with d. Residues, ends and D or L forms follow the SMILES beside them. ξ: configuration not given here. *: point of attachment. Palmitoyl = CCCCCCCCCCCCCCCC(=O)*; Myristoyl = CCCCCCCCCCCCCC(=O)*; Lauroyl = CCCCCCCCCCCC(=O)*; Decanoyl = CCCCCCCCCC(=O)*; ξE = NC(CCC(=O)O)C(=O)O; ξD = NC(CC(=O)O)C(=O)O

Experiments:
[1] = target: T1, BmrA (Bacillus subtilis, UniProt O06967); assay: Extraction of BmrA from membranes (SDS-PAGE of supernatant); design: species or system bacterial; overexpressed in E. coli C41DE3; settings: detergent 10 g/l unless indicated otherwise; 2 h at 4° C.
T1 construct: His tag; made in house; host or cells: E. coli C41(DE3)
T1 sequence (O06967 whole entry): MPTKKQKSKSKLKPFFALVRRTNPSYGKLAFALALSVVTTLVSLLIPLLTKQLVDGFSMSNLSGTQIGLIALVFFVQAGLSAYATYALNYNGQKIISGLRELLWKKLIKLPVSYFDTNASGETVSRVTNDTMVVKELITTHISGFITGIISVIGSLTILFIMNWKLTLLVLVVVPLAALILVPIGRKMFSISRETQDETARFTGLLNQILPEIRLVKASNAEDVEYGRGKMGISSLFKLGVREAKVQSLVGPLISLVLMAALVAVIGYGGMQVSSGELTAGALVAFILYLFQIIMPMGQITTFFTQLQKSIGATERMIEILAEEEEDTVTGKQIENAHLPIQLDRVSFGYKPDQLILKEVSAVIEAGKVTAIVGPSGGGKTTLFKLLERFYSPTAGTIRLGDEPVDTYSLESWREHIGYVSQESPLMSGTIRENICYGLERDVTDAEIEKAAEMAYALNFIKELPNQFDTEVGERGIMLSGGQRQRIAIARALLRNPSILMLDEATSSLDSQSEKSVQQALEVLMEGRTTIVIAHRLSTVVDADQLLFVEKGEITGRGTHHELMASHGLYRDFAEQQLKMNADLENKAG
Protocol: (§1) FIG. 6 depicts the extraction of the membrane proteins BmrA (panels A and C) and AcrB (panels B and D) using commercial detergents and the molecules of the invention (panels A and B, from left to right): SDS, DDM, FC12, TX100, compounds of the invention 1.4, 1.5, 2.3a, 2.3b, 2.3c, 2.3d, 2.3e, 2.3f, 2.3g, 2.3h, 2.3i, 3.7a, 3.7b; panel C: compounds of the invention 3.7c 0.8%, 3.7d 0.16%, 3.7e 0.8%, 3.7f 0.3%, 3.7g 0.4%, 3.7h 0.2%, 3.7i 0.07%, 3.7j 0.09%, 3.7k, 3.7l, 0.25%, 3.9a, 4.5a, 4.5b, 4.5c, 4.5d 0.34%, 4.6a, 4.6b, 4.6c, 4.6d, 5.3a, 5.3b, 5.3c 0.3%, 5.3d 0.3%; panel D: 3.7c, 3.7d, 3.7e, 3.7f, 3.7h, 3.7i 0.1%, 3.7j, 3.7k, 3.7l, 3.9a, 4.5a, 4.5b, 4.5c, 4.5d, 4.6a, 4.6b, 4.6c, 4.6d. The detergents are added at 10 g/l (1%), unless indicated otherwise. The equivalent of 20 μg of proteins of the extracted fraction after centrifugation at 100 000×g for 30 min is deposited on 10% SDS-PAGE, stained with Coomassie blue after migration. BmrA migrates in its monomeric form to the level of the 55 kDa band; AcrB migrates in its monomeric form to the level of the 100 kDa band. SDS=sodium dodecyl sulfate; DDM=β-D-dodecyl maltoside; FC12=foscholine-12; TX100=triton X-100.
(§2) The extraction capacity of the detergents of the series is tested on membranes in which BmrA or AcrB are strongly expressed. The extraction with the clips (molecules of the invention) is compared to that obtained with commercial detergents, used as reference.
(§3) Procedure. BmrA represents 25% of the proteins present in the overexpression system used (E. coli, C41DE3). These membranes are prepared as described previously (Matar-Merheb, R. et al. ([11])). The membranes containing AcrB (approximately 20% of the membrane proteins, same expression system as BmrA) were prepared as described previously (Seeger, M. A. et al. ([21])). The detergents are used at 10 g/l unless indicated otherwise, and the proteins diluted at 2 g/l in a 20 mM Tris-HCl buffer, pH 8.0, 100 mM NaCl, 15% glycerol, with protease inhibitors (Roche) added thereto at an amount of one tablet/100 ml. The mixture (T) is incubated for 2 h at 4° C. then centrifuged for 1 h at 4° C. at 100 000×g in order to separate the extracted fraction (supernatant, S) from that which is not extracted (pellet). The supernatants are deposited on 10% SDS-PAGE and stained with Coomassie blue after migration. The foscholine 12, DDM and LMNG originate from Anatrace, the SDS and Triton X100 originate from Sigma-Aldrich.

[2] = Critical micelle concentration (CMC) by DPH fluorescence; assay type: physicochemical; settings: 50 mM tris-HCl, pH 8.0
Protocol: FIG. 4 represents the fluorescence (%) of DPH (1,6-diphenyl-1,3,5-hexatriene) in the presence of increasing concentrations (0.0001 mM, 0.001 mM, 0.01 mM, 0.1 mM, 1 mM and 10 mM) of clips (compounds of the invention), exemplified with the compounds #3.7e (C13, points represented by squares) and 3.7f (C18, points represented by circles). The experiment is carried out in triplicates. In accordance with Chattopadhyay, A. & London, E ([22]), the CMC corresponds to the concentration at which the breakage in the slope is observed, here at 20 μM for 3.7f and 2 mM for 3.7e (black symbols).
Procedure. The molecules of the invention were prepared in a range of concentrations extending from 0.1 μM to 10 mM in 50 mM tris-HCl, pH 8.0 and neutralized at this pH. To 80 μl of each solution (triplicate), the same volume of 10 μM of 1,6-diphenyl-1,3,5-hexatriene (DPH, Sigma, D208000) is added, prepared at 100 μM in tetrahydrofuran then diluted 10-fold in H2O. The increase in the fluorescence of the DPH occurs when the latter find micelles of clips into which it can insert itself (Chattopadhyay, A. & London, E. Fluorimetric determination of critical micelle concentration avoiding interference from detergent charge. Anal Biochem 139, 408-412 (1984) ([22])). The fluorescence is read with a Xenius SAFAS fluorimeter by exciting at 358 nm and recording the fluorescence emission at 430 nm, with slits of 9 to 10 nm for the excitation and the emission and a gain of 100 to 150, depending on the cases.
Results. The CMC of the detergents is the concentration starting from which they associate with one another to form micelles, in which, in aqueous solution, the hydrophobic portions are grouped together at the center and the hydrophilic regions are exposed to the solvent. […] A typical result obtained with a compound 3.7 provided with a C13 (3.7e) or C18 ([…]) aliphatic chain is illustrated in FIG. 4.

[3] = target: T2, AcrB (Escherichia coli, UniProt P31224); assay: Extraction of AcrB from membranes (SDS-PAGE of supernatant); design: species or system bacterial; same expression system (E. coli C41DE3); settings: for selective extraction AcrB versus BmrA: comparison of extraction of AcrB and BmrA; for extraction of AcrB: detergent 10 g/l unless indicated otherwise, 2 h at 4° C.
T2 construct: made in house; host or cells: E. coli C41(DE3)
T2 sequence (P31224 whole entry): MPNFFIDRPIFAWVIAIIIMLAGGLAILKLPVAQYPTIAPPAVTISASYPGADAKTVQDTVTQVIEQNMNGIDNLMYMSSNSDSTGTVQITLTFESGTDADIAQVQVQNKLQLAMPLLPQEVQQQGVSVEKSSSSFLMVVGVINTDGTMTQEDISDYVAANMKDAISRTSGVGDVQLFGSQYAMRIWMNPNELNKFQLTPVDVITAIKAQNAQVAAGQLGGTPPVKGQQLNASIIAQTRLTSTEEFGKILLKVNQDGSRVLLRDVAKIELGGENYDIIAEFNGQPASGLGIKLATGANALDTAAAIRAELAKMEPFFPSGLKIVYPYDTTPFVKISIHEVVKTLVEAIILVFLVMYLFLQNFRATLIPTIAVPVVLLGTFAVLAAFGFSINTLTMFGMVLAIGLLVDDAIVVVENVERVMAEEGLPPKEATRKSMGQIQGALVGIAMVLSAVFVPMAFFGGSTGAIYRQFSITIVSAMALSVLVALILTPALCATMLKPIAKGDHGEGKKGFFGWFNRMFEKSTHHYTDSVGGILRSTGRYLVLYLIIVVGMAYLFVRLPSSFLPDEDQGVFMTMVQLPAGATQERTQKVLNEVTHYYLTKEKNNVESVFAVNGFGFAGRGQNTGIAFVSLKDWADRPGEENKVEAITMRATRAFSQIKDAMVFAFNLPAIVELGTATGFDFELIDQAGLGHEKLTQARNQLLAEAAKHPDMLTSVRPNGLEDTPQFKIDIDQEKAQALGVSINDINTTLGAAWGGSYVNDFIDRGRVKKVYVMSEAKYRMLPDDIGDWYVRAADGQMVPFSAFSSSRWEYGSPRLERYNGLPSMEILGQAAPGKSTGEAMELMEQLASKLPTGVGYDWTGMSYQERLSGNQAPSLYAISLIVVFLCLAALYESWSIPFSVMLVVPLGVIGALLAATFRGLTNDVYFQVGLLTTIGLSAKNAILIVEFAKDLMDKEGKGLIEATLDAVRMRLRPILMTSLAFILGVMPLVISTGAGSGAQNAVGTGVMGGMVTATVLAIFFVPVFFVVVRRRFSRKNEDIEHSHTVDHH
Protocol: as §1, §2, §3

With `CCCNC(=O)[C@H](CO)NCC(=O)O` [Compound 1.4] the “extraction of BmrA” value [1] was “extracting”.

With `CCCNC(=O)[C@H](CO)N(CC(=O)O)CC(=O)O` [Compound 1.5] the “CMC” value [2] was 2.5 mM, the “selective extraction AcrB versus BmrA” value [3] was “more effectively extract AcrB” and the “extraction of AcrB” value [3] was “extracting”. The “extraction of BmrA” value [1] was “partially extracting”.

With `CCCCCCCCCCCCCC(=O)N[C@@H](CO)C(=O)N[C@H](CCC(=O)O)C(=O)O` [Compound 2.3a] (HELM PEPTIDE1{[CCCCCCCCCCCCCC(=O)[*:2]].S.[dE]}$$$$V2.0) the “CMC” value [2] was 2 mM, the “extraction of AcrB” value [3] was “extracting” and the “extraction of BmrA” value [1] was “extracting”.

With `CCCCCCCC(=O)N[C@@H](CO)C(=O)N[C@H](CCC(=O)O)C(=O)O` [Compound 2.3b] (HELM PEPTIDE1{[CCCCCCCC(=O)[*:2]].S.[dE]}$$$$V2.0) the “CMC” value [2] was 5 mM, the “extraction of AcrB” value [3] was “extracting” and the “extraction of BmrA” value [1] was “non-extracting”.

In the case of `CCCCCCCCC(=O)N[C@@H](CO)C(=O)N[C@H](CCC(=O)O)C(=O)O` [Compound 2.3c] (HELM PEPTIDE1{[CCCCCCCCC(=O)[*:2]].S.[dE]}$$$$V2.0), the “CMC” value [2] is reported as 3.5 mM, the “extraction of AcrB” value [3] is reported as “extracting” and the “extraction of BmrA” value [1] is reported as “non-extracting”.

With `CCCCCCCCCC(=O)N[C@@H](CO)C(=O)N[C@H](CCC(=O)O)C(=O)O` [Compound 2.3d] (HELM PEPTIDE1{[CCCCCCCCCC(=O)[*:2]].S.[dE]}$$$$V2.0) the “CMC” value [2] was 2 mM, the “extraction of AcrB” value [3] was “extracting” and the “extraction of BmrA” value [1] was “extracting”.

In the case of `CCCCCCCCCCCC(=O)N[C@@H](CO)C(=O)N[C@H](CCC(=O)O)C(=O)O` [Compound 2.3e] (HELM PEPTIDE1{[CCCCCCCCCCCC(=O)[*:2]].S.[dE]}$$$$V2.0), the “CMC” value [2] is reported as 1 mM and the “extraction of AcrB” value [3] is reported as “extracting”.

With `CCCCCCCCCCCCC(=O)N[C@@H](CO)C(=O)N[C@H](CCC(=O)O)C(=O)O` [Compound 2.3f] the “CMC” value [2] was 0.8 mM, the “extraction of AcrB” value [3] was “extracting” and the “extraction of BmrA” value [1] was “extracting”.

With `CCCCCCCCCCCCCC(=O)N[C@@H](CO)C(=O)N[C@H](CCC(=O)O)C(=O)O` [Compound 2.3g] (HELM PEPTIDE1{[CCCCCCCCCCCCCC(=O)[*:2]].S.[dE]}$$$$V2.0) the “extraction of AcrB” value [3] was “extracting” and the “extraction of BmrA” value [1] was “extracting”.

With `CCCCCCCCCCCCCCCC(=O)N[C@@H](CO)C(=O)N[C@H](CCC(=O)O)C(=O)O` [Compound 2.3h] (HELM PEPTIDE1{[CCCCCCCCCCCCCCCC(=O)[*:2]].S.[dE]}$$$$V2.0) the “CMC” value [2] was 0.5 mM, the “extraction of AcrB” value [3] was “extracting” and the “extraction of BmrA” value [1] was “extracting”.

With `[2H]C([2H])([2H])C([2H])([2H])C([2H])([2H])C([2H])([2H])C([2H])([2H])C([2H])([2H])C([2H])([2H])C([2H])([2H])C([2H])([2H])C([2H])([2H])C([2H])([2H])C(=O)N[C@@H](CO)C(=O)N[C@H](CCC(=O)O)C(=O)O` [Compound 2.3i] the “extraction of AcrB” value [3] was “extracting” and the “extraction of BmrA” value [1] was “extracting”.

In the case of `CCCCCCCCCC(=O)N[C@@H](COCc1cn(CCO[C@@H]2OC(CO)[C@@H](O)C(O)C2O)nn1)C(=O)N[C@H](CCC(=O)O)C(=O)O` (stereo partly drawn) [Compound 3.7a], the “CMC” value [2] is reported as 2 mM, the “extraction of AcrB” value [3] is reported as “do not extract” and the “extraction of BmrA” value [1] is reported as “non-extracting”.

With `CCCCCC(CCCCC)C(=O)N[C@@H](COCc1cn(CCO[C@@H]2OC(CO)[C@@H](O)C(O)C2O)nn1)C(=O)N[C@H](CCC(=O)O)C(=O)O` (stereo partly drawn) [Compound 3.7i] the “CMC” value [2] was 1 mM, the “extraction of AcrB” value [3] was “do not extract” and the “extraction of BmrA” value [1] was “non-extracting”.

With `O=C(O)CC[C@@H](NC(=O)[C@H](COCc1cn(CCO[C@@H]2OC(CO)[C@@H](O)C(O)C2O)nn1)NC(=O)CCCCC1CCCCC1)C(=O)O` (stereo partly drawn) [Compound 3.7k] the “CMC” value [2] was 1 mM, the “extraction of AcrB” value [3] was “do not extract” and the “extraction of BmrA” value [1] was “non-extracting”.

For `CCCCCCCCCC(=O)NC(CC(=O)O)C(=O)NC(CCC(=O)O)C(=O)O` (stereo not drawn) [Compound 4.5a] (Decanoyl-Asp-Glu-OH; configuration not given here), the “CMC” value [2] was 3 mM, the “extraction of AcrB” value [3] was “partially extract” and the “extraction of BmrA” value [1] was “non-extracting”.

For `CCCCCCCCCCCC(=O)NC(CC(=O)O)C(=O)NC(CCC(=O)O)C(=O)O` (stereo not drawn) [Compound 4.5b] (Lauroyl-Asp-Glu-OH; configuration not given here), the “CMC” value [2] was 2 mM, the “extraction of AcrB” value [3] was “extracting” and the “extraction of BmrA” value [1] was “partially extracting”.

For `CCCCCCCCCCCCCC(=O)NC(CC(=O)O)C(=O)NC(CCC(=O)O)C(=O)O` (stereo not drawn) [Compound 4.5c] (Myristoyl-Asp-Glu-OH; configuration not given here), the “CMC” value [2] was 1.5 mM, the “extraction of AcrB” value [3] was “extracting” and the “extraction of BmrA” value [1] was “partially extracting”.

With `CCCCCCCCCCCCCCCC(=O)NC(CC(=O)O)C(=O)NC(CCC(=O)O)C(=O)O` (stereo not drawn) [Compound 4.5d] (Palmitoyl-Asp-Glu-OH; configuration not given here) the “CMC” value [2] was 1 mM, the “extraction of AcrB” value [3] was “extracting” and the “extraction of BmrA” value [1] was “extracting”.

With `CCCCCCCCCC(=O)NC(CC(=O)NC(CCC(=O)O)C(=O)O)C(=O)NC(CCC(=O)O)C(=O)O` (stereo not drawn) [Compound 4.6a] (Decanoyl-Asp(Glu)-Glu-OH; configuration not given here) the “CMC” value [2] was 1 mM, the “extraction of AcrB” value [3] was “do not extract” and the “extraction of BmrA” value [1] was “non-extracting”.

In the case of `CCCCCCCCCCCC(=O)NC(CC(=O)NC(CCC(=O)O)C(=O)O)C(=O)NC(CCC(=O)O)C(=O)O` (stereo not drawn) [Compound 4.6b] (Lauroyl-Asp(Glu)-Glu-OH; configuration not given here), the “CMC” value [2] is reported as 1 mM and the “selective extraction AcrB versus BmrA” value [3] is reported as “not extract, or only very slightly extract, AcrB, unlike BmrA”.

With `CCCCCCCCCCCCCC(=O)NC(CC(=O)N[C@@H](CCC(=O)O)C(=O)O)C(=O)NC(CCC(=O)O)C(=O)O` (stereo partly drawn) [Compound 4.6c] (Myristoyl-[ξD](Glu)-[ξE]-OH) the “CMC” value [2] was 1 mM and the “extraction of AcrB” value [3] was “extracting”.

In the case of `CCCCCCCCCCCCOP(=O)([O-])OCC[N+](C)(C)C` [FC12, foscholine-12, reference compound], the “extraction of AcrB” value [3] is reported as “effectively extracted” and the “extraction of BmrA” value [1] is reported as “effectively extracted”.

For `CCCCCCCCCCCCOS(=O)(=O)[O-].[Na+]` [SDS, sodium dodecyl sulfate, reference compound], the “extraction of AcrB” value [3] was “effectively extracted” and the “extraction of BmrA” value [1] was “effectively extracted”.

In the case of “triton X-100 [TX100, reference compound]”, the “extraction of AcrB” value [3] is reported as “solubilize” and the “extraction of BmrA” value [1] is reported as “solubilize”.
